From ChEMBL document CHEMBL1201862, “PubChem BioAssay data set” (2004) come the findings set out here.

Test systems include 786-0; CCRF-CEM; HCT-15; HL-60; HOP-62; IGROV-1; LOX IMVI; M14; MCF7; MDA-MB-231; MDA-MB-435; Malme-3M; NCI-H522; OVCAR-3; RPMI-8226; SF-295; SF-539; SK-MEL-2; SK-MEL-5; UACC-257.
Holding throughout (test): NCI anticancer screen, dose series, 48 h

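Compound exposure: 48 hours, 5 concentrations, 96-well plates. Here, GI50 denotes the concentration required for 50% inhibition of growth.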 The source made the active and inactive calls. Rule as the data show it: active = GI50 up to about 1.1 µM and inactive = higher. A value given as a limit tells only on which side of the number the result lay.

Consider `O=C1C(c2cnc3ccccc3n2)=C(O)c2ccccc21`, for which the GI50 is 84.3 µM (inactive) in the assay on 786-0; > 100 µM (inactive) with CCRF-CEM; 1.16 µM in the assay on HCT-15; > 60.4 µM (inactive) in the assay with HL-60; 43.4 µM (inactive) with HOP-62; > 83 µM (inactive) in the assay on IGROV-1. Further, the GI50 with LOX IMVI is 47.3 µM (inactive); in the assay on M14, > 100 µM (inactive); in the assay on MCF7, 10.3 µM (inactive); in the assay with MDA-MB-231 it was > 100 µM (inactive); with MDA-MB-435, 4.19 µM (inactive); in the assay with Malme-3M it was > 100 µM (inactive). Besides, the GI50 with NCI-H522 is > 72.9 µM (inactive); with OVCAR-3, > 100 µM (inactive); with RPMI-8226, > 61.1 µM (inactive); in the assay with SF-295 it was > 64 µM (inactive); in the assay on SF-539, > 100 µM (inactive); in the assay on SK-MEL-2 it was > 100 µM (inactive). In addition, the GI50 was 9.75 µM (inactive) with SK-MEL-5 and > 71 µM (inactive) in the assay with UACC-257.
Take `CCOC(=O)CC1Nc2ccccc2C12CCc1c([nH]c3ccccc13)C2C(=O)OCC` (stereo not given): the GI50 is 47.5 µM (inactive) in the assay with 786-0; 0.359 µM (active) in the assay on CCRF-CEM; 13.1 µM in the assay with HCT-15; 14.7 µM (inactive) with HL-60; > 100 µM (inactive) with HOP-62; 6.92 µM (inactive) with IGROV-1. For the same compound, the GI50 is 26.5 µM (inactive) in the assay on LOX IMVI; 30.5 µM (inactive) with M14; 13.1 µM (inactive) with MCF7; 22.9 µM (inactive) in the assay with MDA-MB-231; 4.79 µM (inactive) with MDA-MB-435; 10.5 µM (inactive) in the assay with Malme-3M. For the same compound, the GI50 with NCI-H522 is 7.13 µM (inactive); with OVCAR-3, 22.2 µM (inactive); in the assay with RPMI-8226, 2.77 µM (inactive); in the assay on SF-295, 3.61 µM (inactive); in the assay with SF-539, 88.1 µM (inactive); in the assay with SK-MEL-2 it was 27 µM (inactive). Moreover, the GI50 in the assay on SK-MEL-5 was 14.8 µM (inactive); in the assay on UACC-257 it was 38 µM (inactive).
